Results on one compound are retold here after US8691534B2, “Preparation of romidepsin” (Celgene Corporation, priority 2006, dated 2014).

The nature of the data set: pH-dependent stability of romidepsin in solution during production, purification and storage. The data set is classed as physicochemical. From the text: Based on this recognition, the present invention provides a system for reproducibly preparing romidepsin under conditions that reduce the levels of these contaminating side products. […] This improvement in the purification process of romidepsin allows for higher yields of romidepsin and/or higher purity romidepsin than that provided by known processes. Such an improvement is particularly useful for preparing pharmaceutical grade romidepsin for use in humans.
Romidepsin is a cyclic depsipeptide having a disulfide bond. […] Such adducts are typically insoluble and difficult to remove from purified romidepsin. In certain embodiments, such contaminating adducts prevent a preparation of romidepsin from meeting the desired specifications (e.g., solubility, degree of purity, optical rotation, etc.). In pharmaceutical compositions, these adducts decrease the purity of the active agent, romidepsin. Since romidepsin is being used as a pharmaceutical agent in humans, it is important that pure, stable, monomeric romidepsin be reproducibly obtained from a fermentation of Chromobacterium violaceum. The present invention stems from the recognition that alkaline conditions cause the formation of these undesired romidepsin adducts and provides a novel solution to this problem.

Take `C/C=C1\NC(=O)[C@H]2CSSCC/C=C/[C@H](CC(=O)N[C@H](C(C)C)C(=O)N2)OC(=O)[C@H](C(C)C)NC1=O` [Romidepsin, (1S,4S,10S,16E,21R)-7-[(2Z)-ethylidene]-4,21-diisopropyl-2-oxa-12,13-dithia-5,8,20,23-tetraazabicyclo[8.7.6]tricos-16-ene-3,6,9,19,22-pentanone]: the “reduction of the disulfide bond” value (basic conditions, e.g. greater than an apparent pH of ~7) is recorded as “facilitates the reduction of this disulfide bond”. The “formation of dimerized, oligomerized, or polymerized romidepsin” value (producing, purifying and/or storing at an apparent pH less than approximately 6.5, more preferably less than approximately 6.0) is listed as “prevent the formation of dimerized, oligomerized, or polymerized romidepsin”.
